Assay results reported in US5292733A, “Cephalosporin compounds” (Lucky Limited, priority 1991, dated 1994).
Converted amounts (≈) assume the structure as drawn.

What was measured:
Assay in all cases: Antibacterial activity MIC, two-fold agar dilution
Assay type in all cases: cell-based
[1] = system: Acinetobacter calcoaceticus ATCC 15473; conditions: Acinetobacter calcoaceticus ATCC 15473, Muller-Hinton agar, 37° C., 20 hours; for MIC: ATCC15473, read-out: Antibacterial Activity MIC
Outline: (§1)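 Using Muller-Hinton agar with test compound dispersed at two-fold serial dilutions, bacteria were applied as 2 μl of a 10^7 CFU/ml standard suspension. MIC was scored after 20-hour incubation at 37° C.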

[2] = system: Morganella morganii ATCC 8076h; conditions: Muller-Hinton agar, 37° C., 20 hours; for MIC: ATCC8076H
Outline: as §1

[3] = system: Bacillus cereus ATCC 11778; conditions: Bacillus cereus ATCC 11778, Muller-Hinton agar, 37° C., 20 hours; for MIC: ATCC11778, read-out: Antibacterial Activity MIC
Outline: as §1

[4] = system: Escherichia coli ATCC 10536; conditions: 37° C., 20 hours; for MIC: ATCC10536, Muller-Hinton agar
Outline: as §1

[5] = system: Klebsiella pneumoniae ATCC 10031; conditions: Klebsiella pneumoniae ATCC 10031, Muller-Hinton agar, 37° C., 20 hours; for MIC: ATCC10031, read-out: Antibacterial Activity MIC
Outline: as §1

[6] = system: Enterobacter cloacae ATCC 27508; conditions: Enterobacter cloacae ATCC 27508, Muller-Hinton agar, 37° C., 20 hours; for MIC: ATCC27508, read-out: Antibacterial Activity MIC
Outline: as §1

[7] = system: Micrococcus luteus ATCC 9341; conditions: Micrococcus luteus ATCC 9341, Muller-Hinton agar, 37° C., 20 hours; for MIC: ATCC9341, read-out: Antibacterial Activity MIC
Outline: as §1

[8] = system: Staphylococcus epidermidis ATCC 12228; conditions: Staphylococcus epidermidis ATCC 12228, Muller-Hinton agar, 37° C., 20 hours; for MIC: ATCC12228, read-out: Antibacterial Activity MIC
Outline: as §1

[9] = system: Citrobacter freundii ATCC 8090; conditions: Citrobacter freundii ATCC 8090, Muller-Hinton agar, 37° C., 20 hours; for MIC: ATCC8090, read-out: Antibacterial Activity MIC
Outline: as §1

[10] = system: Enterobacter aerogenes ATCC 29751; conditions: Enterobacter aerogenes ATCC 29751, Muller-Hinton agar, 37° C., 20 hours; for MIC: Klebsiella aerogenes, ATCC29751, read-out: Antibacterial Activity MIC
Outline: as §1

[11] = system: Serratia marcescens ATCC 27117; conditions: Serratia marcescens ATCC 27117, Muller-Hinton agar, 37° C., 20 hours; for MIC: ATCC27117, read-out: Antibacterial Activity MIC
Outline: as §1

[12] = system: Proteus mirabilis ATCC 25933; conditions: Proteus mirabilis ATCC 25933, Muller-Hinton agar, 37° C., 20 hours; for MIC: ATCC25933, read-out: Antibacterial Activity MIC
Outline: as §1

[13] = system: Streptococcus faecalis ATCC 29212; conditions: Streptococcus faecalis ATCC 29212, Muller-Hinton agar, 37° C., 20 hours; for MIC: Enterococcus faecalis, ATCC29212, read-out: Antibacterial Activity MIC
Outline: as §1

[14] = system: Shigella flexneri ATCC 11836; conditions: 37° C., 20 hours; for MIC: ATCC11836, Muller-Hinton agar
Outline: as §1

[15] = system: Salmonella typhimurium ATCC 14028; conditions: Salmonella typhimurium ATCC 14028, Muller-Hinton agar, 37° C., 20 hours; for MIC: Salmonella enterica, read-out: Antibacterial Activity MIC
Outline: as §1

[16] = system: Providencia rettgeri ATCC 9250; conditions: 37° C., 20 hours; for MIC: ATCC9250, Muller-Hinton agar
Outline: as §1

[17] = system: Staphylococcus aureus ATCC 10537; conditions: Staphylococcus aureus ATCC 10537, Muller-Hinton agar, 37° C., 20 hours; for MIC: ATCC10537, read-out: Antibacterial Activity MIC
Outline: as §1

[18] = system: Staphylococcus aureus ATCC 6538p; conditions: Staphylococcus aureus ATCC 6538p, Muller-Hinton agar, 37° C., 20 hours; for MIC: ATCC6538P, read-out: Antibacterial Activity MIC
Outline: as §1

[19] = system: Escherichia coli ATCC 25922; conditions: 37° C., 20 hours; for MIC: ATCC25922, Muller-Hinton agar
Outline: as §1

[20] = system: Pseudomonas aeruginosa ATCC 27853; conditions: Pseudomonas aeruginosa ATCC 27853, Muller-Hinton agar, 37° C., 20 hours; for MIC: ATCC27853, read-out: Antibacterial Activity MIC
Outline: as §1

[21] = system: Pseudomonas aeruginosa ATCC 10145; conditions: Pseudomonas aeruginosa ATCC 10145, Muller-Hinton agar, 37° C., 20 hours; for MIC: ATCC10145, read-out: Antibacterial Activity MIC
Outline: as §1

[22] = system: Pseudomonas aeruginosa ATCC 25619; conditions: Pseudomonas aeruginosa ATCC 25619, Muller-Hinton agar, 37° C., 20 hours; for MIC: ATCC25619, read-out: Antibacterial Activity MIC
Outline: as §1

[23] = system: Bacillus megaterium ATCC 9885; conditions: Bacillus megaterium ATCC 9885, Muller-Hinton agar, 37° C., 20 hours; for MIC: Priestia megaterium, ATCC9885, read-out: Antibacterial Activity MIC
Outline: as §1

[24] = system: Shigella sonnei ATCC 11060; conditions: 37° C., 20 hours; for MIC: ATCC11060, Muller-Hinton agar
Outline: as §1

[25] = system: Proteus vulgaris ATCC 6059; conditions: Proteus vulgaris ATCC 6059, Muller-Hinton agar, 37° C., 20 hours; for MIC: ATCC6059, read-out: Antibacterial Activity MIC
Outline: as §1

CC[n+]1c(SCC2=C(C(=O)[O-])N3C(=O)[C@@H](NC(=O)/C(=N\OC)c4csc(N)n4)[C@H]3SC2)cc(N)nc1N [Compound I-8, (6R,7R)-7-[(Z)-2-(2-aminothiazol-4-yl)-2-(methoxyimino)acetamido]-3-(2,6-diamino-3-ethylpyrimidinium-4-yl)thiomethyl-3-cephem-4-carboxylate]
MIC [1]: 8 µg/mL (≈ 14.1 µM)
MIC [2]: 0.016 µg/mL (≈ 0.0283 µM)
MIC [3]: 64 µg/mL (≈ 113 µM)
MIC [4]: 0.063 µg/mL (≈ 0.111 µM)
MIC [5]: 0.016 µg/mL (≈ 0.0283 µM)
MIC [6]: 0.016 µg/mL (≈ 0.0283 µM)
MIC [7]: 0.063 µg/mL (≈ 0.111 µM)
MIC [8]: 0.5 µg/mL (≈ 0.884 µM)
MIC [9]: 0.13 µg/mL (≈ 0.23 µM)
MIC [10]: 0.5 µg/mL (≈ 0.884 µM)
MIC [11]: 0.5 µg/mL (≈ 0.884 µM)
MIC [12]: 0.031 µg/mL (≈ 0.0548 µM)
MIC [13]: > 128 µg/mL
MIC [14]: 0.063 µg/mL (≈ 0.111 µM)
MIC [15]: 0.5 µg/mL (≈ 0.884 µM)
MIC [16]: ≤ 8 ng/mL
MIC [17]: 1 µg/mL (≈ 1.77 µM)
MIC [18]: 2 µg/mL (≈ 3.54 µM)
MIC [19]: 0.063 µg/mL (≈ 0.111 µM)
MIC [20]: 16 µg/mL (≈ 28.3 µM)
MIC [21]: 32 µg/mL (≈ 56.6 µM)
MIC [22]: 2 µg/mL (≈ 3.54 µM)
MIC [23]: 0.13 µg/mL (≈ 0.23 µM)
MIC [24]: 0.5 µg/mL (≈ 0.884 µM)
MIC [25]: 0.063 µg/mL (≈ 0.111 µM)

CC(O/N=C(\C(=O)N[C@@H]1C(=O)N2C(C(=O)[O-])=C(CSc3cc(N)nc(N)[n+]3C)CS[C@H]12)c1csc(N)n1)C(=O)O (stereo partly drawn) [Compound I-3, (6R,7R)-7-[(Z)-2-(2-aminothiazol-4-yl)-2-(R,S-carboxyeth-1-oxyimino)acetamido]-3-(2,6-diamino-3-methylpyrimidinium-4-yl)thiomethyl-3-cephem-4-carboxylate]
MIC [1]: 2 µg/mL (≈ 3.28 µM)
MIC [2]: ≤ 0.008 µg/mL
MIC [3]: 64 µg/mL (≈ 105 µM)
MIC [4]: 0.13 µg/mL (≈ 0.213 µM)
MIC [5]: 0.031 µg/mL (≈ 0.0508 µM)
MIC [6]: 0.016 µg/mL (≈ 0.0262 µM)
MIC [7]: 0.5 µg/mL (≈ 0.82 µM)
MIC [8]: 2 µg/mL (≈ 3.28 µM)
MIC [9]: 0.13 µg/mL (≈ 0.213 µM)
MIC [10]: 2 µg/mL (≈ 3.28 µM)
MIC [11]: 0.13 µg/mL (≈ 0.213 µM)
MIC [12]: 0.31 µg/mL (≈ 0.508 µM)
MIC [13]: > 128 µg/mL
MIC [14]: 0.031 µg/mL (≈ 0.0508 µM)
MIC [15]: 0.5 µg/mL (≈ 0.82 µM)
MIC [16]: ≤ 8 ng/mL
MIC [17]: 4 µg/mL (≈ 6.56 µM)
MIC [18]: 4 µg/mL (≈ 6.56 µM)
MIC [19]: 0.13 µg/mL (≈ 0.213 µM)
MIC [20]: 1 µg/mL (≈ 1.64 µM)
MIC [21]: 1 µg/mL (≈ 1.64 µM)
MIC [22]: 1 µg/mL (≈ 1.64 µM)
MIC [23]: 0.25 µg/mL (≈ 0.41 µM)
MIC [24]: 0.25 µg/mL (≈ 0.41 µM)
MIC [25]: 0.063 µg/mL (≈ 0.103 µM)

(6R,7R)-7-[(Z)-2-(5-aminothiazol-4-yl)-2-(2-propyn-1-oxyimino)acetamido]-3-(2,6-diamino-1-methylpyrimidinium-4-yl)thiomethyl-3-cephem-4-carboxylate [Compound I-16]
Antibacterial Activity MIC [1]: 8 µg/mL
Antibacterial Activity MIC [2]: 0.016 µg/mL
Antibacterial Activity MIC [3]: 64 µg/mL
Antibacterial Activity MIC ([4]; Muller-Hinton agar): 0.5 µg/mL
Antibacterial Activity MIC [5]: 0.016 µg/mL
Antibacterial Activity MIC [6]: 0.063 µg/mL
Antibacterial Activity MIC [7]: 0.031 µg/mL
Antibacterial Activity MIC [8]: 0.25 µg/mL
Antibacterial Activity MIC [9]: 0.25 µg/mL
Antibacterial Activity MIC [10]: 1 µg/mL
Antibacterial Activity MIC [11]: 2 µg/mL
Antibacterial Activity MIC [12]: 1 µg/mL
Antibacterial Activity MIC [13]: 32 µg/mL
Antibacterial Activity MIC ([14]; Muller-Hinton agar): 0.25 µg/mL
Antibacterial Activity MIC [15]: 1 µg/mL
Antibacterial Activity MIC ([16]; Muller-Hinton agar): <= 0.008 μg/ml
Antibacterial Activity MIC [17]: 0.5 µg/mL
Antibacterial Activity MIC [18]: 0.5 µg/mL
Antibacterial Activity MIC ([19]; Muller-Hinton agar): 0.5 µg/mL
Antibacterial Activity MIC [20]: 4 µg/mL
Antibacterial Activity MIC [21]: 8 µg/mL
Antibacterial Activity MIC [22]: 2 µg/mL
Antibacterial Activity MIC [23]: 0.25 µg/mL
Antibacterial Activity MIC ([24]; Muller-Hinton agar): 0.5 µg/mL
Antibacterial Activity MIC [25]: 1 µg/mL
